This assay addresses human IDO1 (Homo sapiens, UniProt P14902). Nature of the assay: Assessment of human IDO-1 inhibitory activity in Hela cells (Interferon-gamma activated, Ehrlich reagent, absorbance at 490 nm). The format is cell-based. Also on record: endogenous in cells; host or cells: HeLa cells stimulated with interferon-gamma. Particulars: 18 hours. The procedure: Exemplary compounds were tested for inhibition of IDO activity.
HeLa cells were seeded at 20,000 cells per 30 µL per well with RPMI/phenol red free media containing 10% FBS in a 384-well tissue culture plate (black with clear bottoms). 50 nL of compound was added to cells and incubated at 37° C. for one hour. 20 μL of the recombinant human Interferon-gamma (R&D System, Cat. #285-IF, at final concentration of 10 ng/ml) or recombinant murine Interferon-gamma (PEPROTECH® Inc., Cat. #315-05, final concentration of 5 ng/ml) was added to activate IDO signaling. The cells were incubated for 18 hours in 37° C. incubator with 5% CO2.
Compound treatment was stopped by adding 5 μl trichloroacetic acid to a final concentration of 3%. Subsequently, the cell plate was further incubated at 50° C. for 30 minute. An equal volume supernatant (20 μL) and 2% (w/v) Ehrlich reagent (4-dimethylaminobenzaldehyde) in glacial acetic acid were mixed in a new clear bottom 384-well plate. This plate was incubated at room temperature for 30 minutes. Absorbance at 490 nm was measured on Envision plate reader.
Compound IC50 values were calculated using counts from unstimulated (no INF-gamma treatment) wells as 100% inhibition. INF-gamma treatment without compound treatment as 0% inhibition.

Sequence of human IDO1 (P14902 whole entry): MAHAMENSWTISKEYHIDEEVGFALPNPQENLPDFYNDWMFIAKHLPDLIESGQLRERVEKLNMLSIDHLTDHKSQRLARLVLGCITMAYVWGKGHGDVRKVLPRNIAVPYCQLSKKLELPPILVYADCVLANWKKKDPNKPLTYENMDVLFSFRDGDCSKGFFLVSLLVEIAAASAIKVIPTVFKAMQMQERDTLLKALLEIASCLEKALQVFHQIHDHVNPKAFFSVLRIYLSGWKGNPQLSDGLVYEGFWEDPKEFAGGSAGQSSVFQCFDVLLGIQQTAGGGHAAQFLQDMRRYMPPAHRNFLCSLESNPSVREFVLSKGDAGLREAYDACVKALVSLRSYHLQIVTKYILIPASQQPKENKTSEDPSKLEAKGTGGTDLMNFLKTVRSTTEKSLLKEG

With `COCC(CC(=O)O)c1ccc(N(C)C2CCOCC2)c(Nc2ccc(C#N)cc2)c1` (single isomer, unassigned) [Example 880, 3-(3-((4-Cyanophenyl)amino)-4-(methyl(tetrahydro-2H-pyran-4-yl)amino)phenyl)-4-methoxybutanoic acid], the half-maximal inhibitory concentration (IC50) (commonly the concentration needed to halve the response being measured) is under 50 nM.
The compound `COCC(CC(=O)O)c1ccc(N(C)C2CCOCC2)c(Nc2ccc(C#N)c(F)c2)c1` (single isomer, unassigned) [Example 882, 3-(3-((4-cyano-3-fluorophenyl)amino)-4-(methyl(tetrahydro-2H-pyran-4-yl)amino)phenyl)-4-methoxybutanoic acid] came in with an IC50 of under 50 nM.
For `COCC(CC(=O)O)c1ccc(N(C)C2CCOCC2)c(Nc2ccc(C#N)cc2F)c1` (single isomer, unassigned) [Example 883, 3-(3-((4-cyano-2-fluorophenyl)amino)-4-(methyl(tetrahydro-2H-pyran-4-yl)amino)phenyl)-4-methoxybutanoic acid], the IC50 was under 50 nM.
`CCOc1ncc(Nc2cc(C(COC)CC(=O)O)ccc2N(C)C2CCOCC2)cn1` (single isomer, unassigned) [Example 885, 3-(3-((2-ethoxypyrimidin-5-yl)amino)-4-(methyl (tetrahydro-2H-pyran-4-yl)amino)phenyl)-4-methoxybutanoic acid] gave an IC50 of over 50 nM.
`COCC(CC(=O)O)c1ccc(N2CCOC[C@H]2C(C)C)c(NC(=O)Nc2ccc(C#N)cc2)c1` (single isomer, unassigned) [Example 915] gave an IC50 of over 50 nM.
`CCN(c1c(F)cc(C(COC)CC(=O)O)cc1NC(=O)Nc1ccc(Cl)cc1F)C1CCOCC1` (single isomer, unassigned) [Example 917, 3-(3-(3-(4-Chloro-2-fluorophenyl)ureido)-4-(ethyl(tetrahydro-2H-pyran-4-yl)amino)-5-fluorophenyl)-4-methoxybutanoic acid] had an IC50 of over 50 nM.
`COCC(CC(=O)O)c1cc(F)c(N(CC(C)C)CC(C)C)c(Nc2ccc(Cl)cc2)c1` (single isomer, unassigned) [Example 921, 3-(3-((4-Chlorophenyl)amino)-4-(diisobutylamino)-5-fluorophenyl)-4-methoxybutanoic acid] came in with an IC50 of under 5 nM.
In the case of `CCc1ccc(Nc2cc(C(COC)CC(=O)O)cc(F)c2N(CC(C)C)CC(C)C)cc1` (single isomer, unassigned) [Example 926, 3-(4-(diisobutylamino)-3-((4-ethylphenyl)amino)-5-fluorophenyl)-4-methoxybutanoic acid.] it was under 50 nM; in that of `COCC(CC(=O)O)c1ccc(NC2CCOCC2)c(Nc2ccc(C#N)cc2)c1` (single isomer, unassigned) [Example 928 E2, 3-(3-((4-Cyanophenyl)amino)-4-((tetrahydro-2H-pyran-4-yl)amino)phenyl)-4-methoxybutanoic acid], over 50 nM; in that of `CCOc1ncc(Nc2cc(C(COC)CC(=O)O)ccc2N2CCOC[C@@H]2C(C)C)cn1` (single isomer, unassigned) [Example 935], over 50 nM.
For `COCC(CC(=O)O)c1ccc(N2CCOC[C@@H]2C(C)C)c(NC(=O)Nc2ccc(C#N)cc2)c1` (single isomer, unassigned) [Example 936], the IC50 is over 50 nM.
In the case of `CCC(CC(=O)O)c1ccc(N(C)C2CCOCC2)c(Nc2ccc(Cl)cc2)c1` (single isomer, unassigned) [Example 937, 3-(3-((4-chlorophenyl)amino)-4-(methyl(tetrahydro-2H-pyran-4-yl)amino)phenyl) pentanoic acid] it was under 5 nM; in that of `CCOc1ncc(Nc2cc(C(COC)CC(=O)O)ccc2N2CCOC[C@H]2C(C)C)cn1` (single isomer, unassigned) [Example 938], over 50 nM; in that of `CCC(CC(=O)O)c1ccc(N(CC)C2CCN(Cc3ccccc3)CC2)c(Nc2ccc(C#N)cc2)c1` (single isomer, unassigned) [Example 943, 3-(4-((1-benzylpiperidin-4-yl)(ethyl)amino)-3-((4-cyanophenyl)amino)phenyl) pentanoic acid], under 5 nM.
In the case of `CCOc1ncc(Nc2cc(C(CC)CC(=O)O)ccc2N(CC)C2CCOC2)cn1` (single isomer, unassigned) [Example 945 D2, 3-(3-((2-Ethoxypyrimidin-5-yl)amino)-4-(ethyl (tetrahydrofuran-3-yl)amino)phenyl)pentanoic acid] it was under 50 nM; in that of `CCC(CC(=O)O)c1ccc(N2CC(O)(c3ccc(F)cc3)C2)c(Nc2ccc(C#N)cc2)c1` (single isomer, unassigned) [Example 1255, 3-(3-((4-cyanophenyl)amino)-4-(3-(4-fluorophenyl)-3-hydroxyazetidin-1-yl)phenyl)pentanoic acid], under 50 nM; in that of `CCC(CC(=O)O)c1ccc(N(CCOC)C2CCOCC2)c(Nc2ccc(C#N)cc2)c1` (single isomer, unassigned) [Example 1261, 3-(3-((4-cyanophenyl)amino)-4-((2-methoxyethyl)(tetrahydro-2H-pyran-4-yl)amino)phenyl)pentanoic acid], under 5 nM.
In turn, `CCC(CC(=O)O)c1ccc(N(CCOC)C2CCOCC2)c(Nc2cnc(OC)nc2)c1` (single isomer, unassigned) [Example 1262, 3-(4-((2-methoxyethyl)(tetrahydro-2H-pyran-4-yl)amino)-3-((2-methoxypyrimidin-5-yl)amino)phenyl)pentanoic acid] displayed an IC50 of under 50 nM.
In the case of `CCOc1ncc(Nc2cc(C(CC)CC(=O)O)ccc2N(CCOC)C2CCOCC2)cn1` (single isomer, unassigned) [Example 1263, 3-(3-((2-ethoxypyrimidin-5-yl)amino)-4-((2-methoxyethyl)(tetrahydro-2H-pyran-4-yl)amino)phenyl)pentanoic acid] it was under 50 nM.
In the case of `CCC(CC(=O)O)c1ccc(N(CCOC)C2CCOCC2)c(NC(=O)Nc2ccc(Cl)cc2F)c1` (single isomer, unassigned) [Example 1266, 3-(3-(3-(4-chloro-2-fluorophenyl)ureido)-4-((2-methoxyethyl) (tetrahydro-2H-pyran-4-yl)amino)phenyl)pentanoic acid] it was under 50 nM; in that of `CCC1COCCN1c1ccc([C@@H](COC)CC(=O)O)cc1Nc1ccc(C#N)c(F)c1` (single isomer, unassigned) [Example 1296], over 50 nM.
In turn, `CCC1COCCN1c1ccc([C@@H](COC)CC(=O)O)cc1Nc1ccc(C#N)cn1` (single isomer, unassigned) [Example 1297] returned an IC50 of over 50 nM.
In the case of `CCC1COCCN1c1ccc([C@@H](COC)CC(=O)O)cc1Nc1cnc(OC)nc1` (single isomer, unassigned) [Example 1298] it was over 50 nM.
In the case of `CCOc1ncc(Nc2cc([C@@H](COC)CC(=O)O)ccc2N2CCOCC2CC)cn1` (single isomer, unassigned) [Example 1299] it was over 50 nM; in that of `CCC1COCCN1c1ccc([C@H](COC)CC(=O)O)cc1Nc1ccc(C#N)cn1` (single isomer, unassigned) [Example 1305], over 50 nM; in that of `CCC1COCCN1c1ccc([C@H](COC)CC(=O)O)cc1Nc1cnc(OC)nc1` (single isomer, unassigned) [Example 1306], over 50 nM.
`CCOc1ncc(Nc2cc([C@H](COC)CC(=O)O)ccc2N2CCOCC2CC)cn1` (single isomer, unassigned) [Example 1307]: the IC50 is over 50 nM.

The record behind these values is patent US10399932B2, “Inhibitors of indoleamine-2,3-dioxygenase for the treatment of cancer” (BRISTOL-MYERS SQUIBB COMPANY, priority 2015, dated 2019).
